This note sets out measurements from patent publication US10500195B2, “Antibacterial compounds” (WOCKHARDT LIMITED, priority 2017, dated 2019).

A word on the melting point: it is the temperature of the solid-liquid transition. The MIC is the lowest concentration that inhibits growth of the organism. A low value points to inhibition by little substance.

Data set [1] deals with E. coli strain M50 (CMY, DHA). As to the kind of experiment: Time-dependent bacterial kill study. The format is cell-based. As to conditions: initial count 7.18 log10 CFU/ml. On the procedure: In these studies, the initial bacterial count (at 0 hours) was 7.18 log10 CFU/ml. In general, 1, 2 and 3 log bacterial kill over initial count corresponds to […] bactericidal effect. In a typical time-dependent bacterial kill studies, freshly grown bacterial cultures were diluted to target cell density (initial starting inoculum) in Cation adjusted Muller Hinton broth medium (BD, USA). The antibacterial agents (either alone or in combination) at the required concentrations were added into the culture-containing medium. The sample flasks were incubated under shaking condition (120 rpm) at 37° C. Enumeration of viable bacterial count was undertaken periodically by diluting the sample in normal saline and plating on to the Tryptic Soya Agar plates (BD, USA). The plates were incubated for 24 hours to estimate viable bacterial count. The results are expressed in terms of Log10 CFU per ml.

In another data set the test system is K. pneumoniae H525. As to the kind of experiment: Antibacterial activity (MIC), agar dilution per CLSI. As to conditions: Klebsiella pneumoniae. The data set is classed as cell-based. On the procedure: (§1) The biological activity of representative compounds according to the invention against various bacterial strains was investigated. In a typical study, overnight grown bacterial cultures were diluted appropriately and inoculated on the agar media containing doubling dilutions of the test compounds. Observation for growth or no growth was performed after 16-20 hours of incubation at 35±2° C. in ambient air. The overall procedure was performed as per Clinical and Laboratory Standards Institute (CLSI) recommendations (Clinical and Laboratory Standards Institute (CLSI), Performance Standards for Antimicrobial Susceptibility Testing, 20th Informational Supplement, M 100-S20, Volume 30, No. 1, 2010).

The next data set has as its system E. coli M 49. The data set is described as above. The data set is classed as cell-based. As to conditions: Escherichia coli, M49. As to the method: as §1
The subject of another data set is E. coli 13353. Described as above. The format is cell-based. As to conditions: Escherichia coli. On the procedure: as §1
The test system of another data set is E. coli 13351. The description is as above. The format is cell-based. As to conditions: Escherichia coli. As to the method:
as §1

For data set [2], the system named is K. pneumoniae ATCC 700603. The data set is described as above. The format is cell-based. The settings on record: Klebsiella pneumoniae, ATCC700603. As to the method:
as §1

Another data set has as its system K. pneumoniae H522. Described as above. The format is cell-based. As to conditions: Klebsiella pneumoniae. As to the method:
as §1

The next data set deals with E. coli M 36. The description is as above. The format is cell-based. As to conditions: Escherichia coli, M36. As to the method: as §1
Another data set concerns E. coli 13352. The description is as above. The data set is classed as cell-based. The settings on record: Escherichia coli. As to the method: as §1
For a further data set, the system named is K. pneumoniae H523. The data set is described as above. The format is cell-based. As to conditions: Klebsiella pneumoniae. As to the method:
as §1

Another data set deals with K. pneumoniae H521. Described as above. As to conditions: Klebsiella pneumoniae. The format is cell-based. As to the method: as §1
In another data set the test system is E. coli M 138. The data set is described as above. As to conditions: Escherichia coli, M138. The format is cell-based. As to the method: as §1
A further data set has as its system E. coli 7MP. The data set is described as above. As to conditions: Escherichia coli. The data set is classed as cell-based. On the procedure: as §1
The subject of the next data set is E. coli M 50. Described as above. The format is cell-based. As to conditions: Escherichia coli, M50. On the procedure: as §1
Where [3] appears, read: 2 hours, antibacterial agent alone 8 μg/ml.
Setting [4] is: 4 hours, antibacterial agent alone 8 μg/ml.
Where [5] appears, read: 6 hours, antibacterial agent alone 8 μg/ml.
[6] abbreviates: 8 hours, antibacterial agent alone 8 μg/ml.

Values after ≈ are worked out from the molar mass of the structure shown.

Take `Nc1nc(/C(=C/CC(=O)O)C(=O)N[C@@H]2C(=O)N3C(C(=O)O)=CCS[C@H]23)cs1` [Ceftibuten]: the Bacterial count in data set [1] (setting [3]) was found to be 7.98 Log10 CFU per ml; in [1] (setting [4]), 8.30 Log10 CFU per ml; in data set [1] (setting [5]) it was 8.74 Log10 CFU per ml; in data set [1] (setting [6]), 9.48 Log10 CFU per ml.

For `O=C(NOC[C@H]1C[C@H](F)CN1)[C@@H]1CC[C@@H]2CN1C(=O)N2OS(=O)(=O)O` [Example 3, (2S, 5R)-N-{[(2R, 4S)-4-fluoropyrrolidin-2-yl]methyloxy}-7-oxo-6-(sulfooxy)-1,6-diazabicyclo[3.2.1]octane-2-carboxamide], the melting point was 175 to 178 °C (dec.). In the data set with K. pneumoniae H525, this molecule returned an MIC of 2 µg/mL (≈ 5.23 µM). This molecule also came in with an MIC against E. coli M 49 of 4 µg/mL (≈ 10.5 µM). Further, the lowest concentration to inhibit growth with E. coli 13353 (MIC) was 1 µg/mL (≈ 2.62 µM). Further, it took 1 µg/mL (≈ 2.62 µM) to inhibit growth in the data set with E. coli 13351 (MIC). The MIC in data set [2] was > 32 µg/mL. Moreover, the MIC in the data set on K. pneumoniae H522 amounted to 2 µg/mL (≈ 5.23 µM). This molecule also registered an MIC against E. coli M 36 of 1 µg/mL (≈ 2.62 µM). In addition, in the data set on E. coli 13352, inhibition of growth (MIC) required 2 µg/mL (≈ 5.23 µM). In the data set on K. pneumoniae H523, this molecule showed an MIC of 2 µg/mL (≈ 5.23 µM). In the data set on K. pneumoniae H521, the MIC came out at 2 µg/mL (≈ 5.23 µM). The MIC against E. coli M 138 was found to be 1 µg/mL (≈ 2.62 µM). This molecule displayed an MIC with E. coli 7MP of 2 µg/mL (≈ 5.23 µM). The molecule further gave an MIC with E. coli M 50 of 1 µg/mL (≈ 2.62 µM).

For the molecule `COCC1=C(C(=O)O)N2C(=O)[C@@H](NC(=O)/C(=N\OC)c3csc(N)n3)[C@H]2SC1` [Cefpodoxime], the Bacterial count in [1] (setting [3]) is 7.95 Log10 CFU per ml; in [1] (setting [4]), 8.70 Log10 CFU per ml; in [1] (setting [5]), 8.95 Log10 CFU per ml; in [1] (setting [6]) it was 9.30 Log10 CFU per ml.

For the molecule `C=CC1=C(C(=O)O)N2C(=O)[C@@H](NC(=O)/C(=N\OCC(=O)O)c3csc(N)n3)[C@H]2SC1` [Cefixime], the Bacterial count in data set [1] (setting [3]) is 7.85 Log10 CFU per ml; in [1] (setting [4]), 8.90 Log10 CFU per ml; in data set [1] (setting [5]), 8.78 Log10 CFU per ml; in data set [1] (setting [6]) it was 9.04 Log10 CFU per ml.

Consider `O=C(NOC[C@@H]1C[C@@H](F)CN1)[C@@H]1CC[C@@H]2CN1C(=O)N2OS(=O)(=O)O` [Example 2, (2S, 5R)-N-{[(2S, 4R)-4-fluoropyrrolidin-2-yl]methyloxy}-7-oxo-6-(sulfooxy)-1,6-diazabicyclo[3.2.1]octane-2-carboxamide], for which the melting point was 160 to 163 °C (dec.). For the same molecule, the MIC against K. pneumoniae H525 is 4 µg/mL (≈ 10.5 µM). This molecule displayed a minimum inhibitory concentration (MIC) against E. coli M 49 of 4 µg/mL (≈ 10.5 µM). In the data set with E. coli 13353, the MIC was determined as 1 µg/mL (≈ 2.62 µM). In the data set on E. coli 13351, the MIC was 1 µg/mL (≈ 2.62 µM). The MIC in data set [2] was > 32 µg/mL. In the data set on K. pneumoniae H522, the MIC came out at 4 µg/mL (≈ 10.5 µM). For the same molecule, the lowest concentration to inhibit growth against E. coli M 36 (MIC) was 1 µg/mL (≈ 2.62 µM). This molecule gave an MIC in the data set on E. coli 13352 of 2 µg/mL (≈ 5.23 µM). Further, 4 µg/mL (≈ 10.5 µM) was the least that counted as inhibitory against K. pneumoniae H523 (MIC). The MIC with K. pneumoniae H521 was 4 µg/mL (≈ 10.5 µM). In the data set with E. coli M 138, the minimum inhibitory concentration (MIC) is 2 µg/mL (≈ 5.23 µM). The MIC in the data set on E. coli 7MP turned out to be 2 µg/mL (≈ 5.23 µM). In addition, the MIC against E. coli M 50 came to 2 µg/mL (≈ 5.23 µM).

On to `O=C(NOC[C@H]1C[C@@H](F)CN1)[C@@H]1CC[C@@H]2CN1C(=O)N2OS(=O)(=O)O` [Example 4, (2S, 5R)-N-{[(2R, 4R)-4-fluoropyrrolidin-2-yl]methyloxy}-7-oxo-6-(sulfooxy)-1,6-diazabicyclo[3.2.1]octane-2-carboxamide], for which the melting point was 207 to 209 °C (dec.). The MIC with K. pneumoniae H525 worked out at 2 µg/mL (≈ 5.23 µM). In addition, the minimum inhibitory concentration (MIC) against E. coli M 49 came to 4 µg/mL (≈ 10.5 µM). The same molecule displayed an MIC against E. coli 13353 of 1 µg/mL (≈ 2.62 µM). The molecule further returned a minimal inhibitory concentration (MIC) with E. coli 13351 of 2 µg/mL (≈ 5.23 µM). The MIC in data set [2] is > 32 µg/mL. Also, in the data set with K. pneumoniae H522, the MIC was found to be 4 µg/mL (≈ 10.5 µM). The MIC in the data set on E. coli M 36 was 1 µg/mL (≈ 2.62 µM). In the data set with E. coli 13352, the MIC came to 4 µg/mL (≈ 10.5 µM). The molecule further registered an MIC in the data set on K. pneumoniae H523 of 4 µg/mL (≈ 10.5 µM). The molecule also displayed an MIC against K. pneumoniae H521 of 4 µg/mL (≈ 10.5 µM). This molecule also came in with an MIC in the data set with E. coli M 138 of 2 µg/mL (≈ 5.23 µM). In the data set with E. coli 7MP, this molecule displayed an MIC of 4 µg/mL (≈ 10.5 µM). In the data set on E. coli M 50, this molecule returned a minimum inhibitory concentration (MIC) of 2 µg/mL (≈ 5.23 µM).

Regarding `CO/N=C(\C(=O)N[C@@H]1C(=O)N2C(C(=O)[O-])=C(C[N+]3(C)CCCC3)CS[C@H]12)c1csc(N)n1` [Cefepime], the Bacterial count in [1] (setting [3]) is reported as 7.85 Log10 CFU per ml; in data set [1] (setting [4]), 8.65 Log10 CFU per ml; in data set [1] (setting [5]) it was 8.90 Log10 CFU per ml; in [1] (setting [6]) it was 9.0 Log10 CFU per ml.

In the case of `O=C(NOC[C@@H]1C[C@H](F)CN1)[C@@H]1CC[C@@H]2CN1C(=O)N2OS(=O)(=O)O` [Example 1, (2S, 5R)-N-{[(2S, 4S)-4-fluoropyrrolidin-2-yl]methyloxy}-7-oxo-6-(sulfooxy)-1,6-diazabicyclo[3.2.1]octane-2-carboxamide], the melting point was 180 to 183 °C (dec.). For the same molecule, the Bacterial count in data set [1] (2 hours, Compound of Formula (Ia) alone 4 μg/ml) is given as 7.78 Log10 CFU per ml. Further, the Bacterial count in data set [1] (4 hours, Compound of Formula (Ia) alone 4 μg/ml) came to 6.74 Log10 CFU per ml. In addition, in data set [1] (6 hours, Compound of Formula (Ia) alone 4 μg/ml), the Bacterial count amounted to 5.85 Log10 CFU per ml. Moreover, in data set [1] (8 hours, Compound of Formula (Ia) alone 4 μg/ml), the Bacterial count is 6.13 Log10 CFU per ml. Besides, the minimum inhibitory concentration (MIC) in the data set on K. pneumoniae H525 was found to be 0.5 µg/mL (≈ 1.31 µM). The lowest concentration to inhibit growth against E. coli M 49 (MIC) was 4 µg/mL (≈ 10.5 µM). Also, the MIC against E. coli 13353 stood at 0.5 µg/mL (≈ 1.31 µM). In addition, the MIC against E. coli 13351 is 0.5 µg/mL (≈ 1.31 µM). In addition, the MIC in data set [2] is > 32 µg/mL. This molecule registered a minimal inhibitory concentration (MIC) against K. pneumoniae H522 of 1 µg/mL (≈ 2.62 µM). In addition, the MIC against E. coli M 36 was determined as 0.25 µg/mL (≈ 0.654 µM). Moreover, 1 µg/mL (≈ 2.62 µM) was the least that counted as inhibitory in the data set on E. coli 13352 (MIC). Also, the MIC in the data set with K. pneumoniae H523 came to 1 µg/mL (≈ 2.62 µM). The same molecule registered an MIC in the data set with K. pneumoniae H521 of 1 µg/mL (≈ 2.62 µM). Further, the minimal inhibitory concentration (MIC) against E. coli M 138 stood at 0.5 µg/mL (≈ 1.31 µM). In addition, the minimum inhibitory concentration (MIC) against E. coli 7MP was determined as 1 µg/mL (≈ 2.62 µM). This molecule also displayed an MIC in the data set with E. coli M 50 of 0.5 µg/mL (≈ 1.31 µM).

Regarding `CC(C)(O/N=C(\C(=O)N[C@@H]1C(=O)N2C(C(=O)[O-])=C(C[n+]3ccccc3)CS[C@H]12)c1csc(N)n1)C(=O)O` [Ceftazidime], the Bacterial count in data set [1] (setting [3]) came out at 7.81 Log10 CFU per ml; in data set [1] (setting [4]) it was 8.90 Log10 CFU per ml; in data set [1] (setting [5]) it was 9.0 Log10 CFU per ml; in data set [1] (setting [6]), 8.92 Log10 CFU per ml.
